Laboratory results: patent US20260285853A1, “COMPOUNDS AND METHODS FOR MODULATING SPLICING” (REMIX THERAPEUTICS INC., priority 2023, published 2026)

How the values were obtained:
Format in all cases: cell-based
HTT mRNA [1] = assay: Splicing RT-qPCR assay (THP), Table 2A; settings: Table 2A, THP; for AC50: HTT alternative junction (AJ) mRNA, read-out: HTT AJ (AC50, increase in alternative junction mRNA); for IC50: HTT canonical junction (CJ) mRNA, read-out: HTT CJ (IC50, decrease in canonical junction mRNA)
[2] = system: SH-SY5Y (human neuroblastoma) cells; assay: Cell viability, Cell Titer Glo 2.0 assay; settings: read-out: Viability SHSY5Y.3 GI50
In short: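 Viability was read by CellTiter-Glo 2.0 luminescence after a 72-hour compound exposure at 37° C. under 5% CO2. Cells were in IMDM plus 10% FBS containing 0.1% DMSO, and medium-only wells gave the blank.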

HTT mRNA [3] = assay: Gene panel canonical junction qPCR assay, decrease in CJ mRNA, Table 3; settings: decrease in CJ mRNA levels, canonical junction qPCR, gene panel
In short: (§1)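 IC50 denotes the concentration giving 50% decrease in canonical-junction mRNA, fitted by 4-parameter logistic to percentage response derived from ΔΔCt versus housekeeping gene and DMSO control. Cells (A673 or K562) exposed 24 h to 11-point 3-fold serial dilutions from 10 uM top, DMSO ≤0.25%; junction-spanning primer/probe qPCR.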

MYB mRNA [4] = assay: as above; settings: decrease in CJ mRNA levels, canonical junction qPCR, gene panel
In short: as §1

MYB mRNA [5] = assay: Splicing RT-qPCR assay (THP), Table 2A; settings: Table 2A, THP; for AC50: MYB alternative junction (AJ) mRNA, read-out: MYB AJ (AC50, increase in alternative junction mRNA); for IC50: MYB canonical junction (CJ) mRNA, read-out: MYB CJ (IC50, decrease in canonical junction mRNA)

Structure (SMILES)	AC50 (HTT mRNA [1])	IC50 (HTT mRNA [1])	GI50 [2]	IC50 (HTT mRNA [3])	IC50 (MYB mRNA [4])	AC50 (MYB mRNA [5])	IC50 (MYB mRNA [5])
Cn1cc2cc(NC(=O)c3ccc(N4CCC(NC5CC5)CC4)c4cn(C)nc34)cc(CNc3ncccn3)c2n1 [Compound 861, 4-[4-(cyclopropylamino)-1-piperidyl]-2-methyl-N-[2-methyl-7-[(pyrimidin-2-ylamino)methyl]indazol-5-yl]indazole-7-carboxamide]	> 10 µM	1 to 10 µM	1 to 10 µM	1 to 10 µM	0.1 to 1 µM	0.1 to 1 µM	0.1 to 1 µM
COc1nc2c(C(=O)Nc3cc(CO)c4nn(C)cc4c3)ccc(N3CCC(NC4CC4)CC3)c2s1 [Compound 862]	0.1 to 1 µM	0.1 to 1 µM	0.1 to 1 µM	0.1 to 1 µM	0.1 to 1 µM	0.1 to 1 µM	0.1 to 1 µM
CNCC1CN(c2ccc(C(=O)Nc3cn4cc(C)nc(CNS(C)(=O)=O)c4n3)c3nn(C)cc23)C1 [Compound 863]	> 10 µM	> 10 µM	> 10 µM	> 10 µM	> 10 µM	> 10 µM	> 10 µM
CCNC1(C)CCN(c2ccc(C(=O)Nc3cn4cc(C)nc(CNS(C)(=O)=O)c4n3)c3nn(C)cc23)CC1 [Compound 864]	> 10 µM	> 10 µM	> 10 µM	> 10 µM	1 to 10 µM	1 to 10 µM	1 to 10 µM
Cc1cn2cc(NC(=O)c3ccc(N4CCC(N)CC4)c4cn(C)nc34)nc2c(CNS(C)(=O)=O)n1 [Compound 865, 4-(4-amino-1-piperidyl)-N-[8-(methanesulfonamidomethyl)-6-methyl-imidazo[1,2-a]pyrazin-2-yl]-2-methyl-indazole-7-carboxamide]	> 10 µM	> 10 µM	> 10 µM	> 10 µM	1 to 10 µM	1 to 10 µM	1 to 10 µM
Cc1cn2cc(NC(=O)c3ccc(N4CCCC(N)C4)c4cn(C)nc34)nc2c(CNS(C)(=O)=O)n1 (stereo not drawn) [Compound 866]	> 10 µM	> 10 µM	> 10 µM	> 10 µM	> 10 µM	> 10 µM	> 10 µM
Cn1cc2cc(NC(=O)c3ccc(N4CCC(NC5CC5)CC4)c4cn(C)nc34)c(O)c(CNS(C)(=O)=O)c2n1 [Compound 867]	> 10 µM	> 10 µM	> 10 µM	> 10 µM	> 10 µM	> 10 µM	> 10 µM
CC(c1cc(NC(=O)c2ccc(N3CCC(NC4CC4)CC3)c3cn(C)nc23)cc2cn(C)nc12)S(=O)(=O)N(C)C (stereo not drawn) [Compound 868]	> 10 µM	> 10 µM	1 to 10 µM	> 10 µM	> 10 µM	> 10 µM	> 10 µM
Cc1c2cc(NC(=O)c3ccc(N4CCC(NC5CC5)CC4)c4cn(C)nc34)cc(CNS(C)(=O)=O)c2nn1C [Compound 869]	> 10 µM	> 10 µM	> 10 µM	> 10 µM	> 10 µM	> 10 µM	> 10 µM
Cc1cn2nc(NC(=O)c3ccc(N4CCC(NC5CC5)CC4)c4cn(C)nc34)cc(CN)c2n1 [Compound 870]	> 10 µM	> 10 µM	0.1 to 1 µM	> 10 µM	> 10 µM	> 10 µM	> 10 µM
Cn1cc2cc(NC(=O)c3ccc(N4CCC(NC5CC5)CC4)c4cn(C)nc34)cc(CNC(=N)N)c2n1 [Compound 871]	> 10 µM	> 10 µM	> 10 µM	> 10 µM	1 to 10 µM	1 to 10 µM	1 to 10 µM
CCNC1CCN(c2ccc(C(=O)Nc3cn4cc(C)nc(CC(=O)NC)c4n3)c3nn(C)cc23)CC1 [Compound 872, 4-[4-(ethylamino)-1-piperidyl]-2-methyl-N-[6-methyl-8-[2-(methylamino)-2-oxo-ethyl]imidazo[1,2-a]pyrazin-2-yl]indazole-7-carboxamide]	> 10 µM	> 10 µM	> 10 µM	> 10 µM	> 10 µM	> 10 µM	> 10 µM
CCNC1CCN(c2ccc(C(=O)Nc3cc(CC(N)=O)c4nn(C)cc4c3)c3nn(C)cc23)CC1 [Compound 873, N-[7-(2-amino-2-oxo-ethyl)-2-methyl-indazol-5-yl]-4-[4-(ethylamino)-1-piperidyl]-2-methyl-indazole-7-carboxamide]	> 10 µM	> 10 µM	> 10 µM	> 10 µM	> 10 µM	> 10 µM	> 10 µM
CCNC1CCN(c2ccc(C(=O)Nc3cc(CS(=O)(=O)N(C)C)c4nn(C)cc4c3)c3nn(C)cc23)CC1 [Compound 874]	> 10 µM	> 10 µM	> 10 µM	> 10 µM	> 10 µM	> 10 µM	> 10 µM
CCNC1CCN(c2ccc(C(=O)Nc3cc(CCC(N)=O)c4nn(C)cc4c3)c3nn(C)cc23)CC1 [Compound 875]	> 10 µM	> 10 µM	> 10 µM	> 10 µM	> 10 µM	> 10 µM	> 10 µM
CCNC1CCN(c2ccc(C(=O)Nc3cc(CCC(=O)NC)c4nn(C)cc4c3)c3nn(C)cc23)CC1 [Compound 876]	1 to 10 µM	1 to 10 µM	1 to 10 µM	1 to 10 µM	1 to 10 µM	1 to 10 µM	1 to 10 µM
CCNC1CCN(c2ccc(C(=O)Nc3cc(CCC(=O)N(C)C)c4nn(C)cc4c3)c3nn(C)cc23)CC1 [Compound 877]	> 10 µM	> 10 µM	> 10 µM	> 10 µM	> 10 µM	> 10 µM	> 10 µM
CCNC1CCN(c2ccc(C(=O)Nc3cc(CCc4nnc[nH]4)c4nn(C)cc4c3)c3nn(C)cc23)CC1 [Compound 878]	> 10 µM	> 10 µM	> 10 µM	> 10 µM	> 10 µM	> 10 µM	> 10 µM
Cn1cc2cc(NC(=O)c3ccc(N4CCC(NC5CC5)CC4)c4cn(C)nc34)cc(CCO)c2n1 [Compound 879]	> 10 µM	> 10 µM	1 to 10 µM	> 10 µM	1 to 10 µM	1 to 10 µM	1 to 10 µM
Cn1cc2cc(NC(=O)c3ccc(N4CCC(NC5CC5)CC4)c4cn(C)nc34)cc(CNc3ncco3)c2n1 [Compound 880]	> 10 µM	> 10 µM	1 to 10 µM	> 10 µM	1 to 10 µM	1 to 10 µM	1 to 10 µM
Cn1cc2cc(NC(=O)c3ccc(N4CCC(NC5CC5)CC4)c4cn(C)nc34)cc(CNc3nccs3)c2n1 [Compound 881]	> 10 µM	1 to 10 µM	1 to 10 µM	1 to 10 µM	1 to 10 µM	0.1 to 1 µM	1 to 10 µM
